Experiments:
[1] = Inhibition of GST-tagged recombinant RANKL/M-CSF-induced osteoclastogenesis in C57BL/6 mouse bone marrow derived macrophages assessed as TRAcP enzymatic activity incubated for 5 days with subsequent replenishment of media for 2 days and measured by leucocyte acid phosphatase staining method; format: functional, tissue-based; details: bmdm
[2] = Cytotoxicity against C57BL/6 mouse bone marrow measured after 48 hrs by CCK8 assay; format: tissue-based, BMDM; details: mouse bone marrow cells
[3] = test system: BMDM; assay: Inhibition of RANKL-induced osteoclastogenesis in C57BL/6 mouse bone marrow derived macrophages assessed as reduction in CTSK mRNA expression measured after 4 days by qRT-PCR method; format: functional, tissue-based; details: dose 0.5-5 µM, time 4.0 day
[4] = test system: BMDM; assay: Inhibition of RANKL-induced osteoclastogenesis in C57BL/6 mouse bone marrow derived macrophages assessed as reduction in NFATC1 mRNA expression measured after 4 days by qRT-PCR method; format: functional, tissue-based; details: dose 0.5-5 µM, time 4.0 day
[5] = test system: BMDM; assay: Inhibition of RANKL-induced osteoclastogenesis in C57BL/6 mouse bone marrow derived macrophages assessed as reduction in TRACP mRNA expression measured after 4 days by qRT-PCR method; format: functional, tissue-based; details: dose 0.5-5 µM, time 4.0 day
[6] = test system: BMDM; assay: Inhibition of RANKL-induced osteoclastogenesis in C57BL/6 mouse bone marrow derived macrophages assessed as reduction in RANK mRNA expression measured after 4 days by qRT-PCR method; format: functional, tissue-based; details: dose 0.5-5 µM, time 4.0 day

Structure (SMILES)	IC50 [1]	IC50 ([1]; read-out: IC50)	other results
COc1cc([C@H]2OC[C@H]3[C@@H]2CO[C@@H]3c2ccc(OC(C)=O)c(OC)c2)ccc1OC(C)=O	Not Active		
COc1cc2nc3occc3c(OC)c2cc1OC [KOKUSAGININE]		3160 nM	
COc1cc2c(cc1OC)C(Cc1ccc(OCc3ccccc3)c(OC)c1)=NCC2		32 nM	CC50 at 48 h [2]: 26800 nM; inhibition [3]: Dose-Dependent Effect; inhibition [4]: Dose-Dependent Effect; inhibition [5]: Dose-Dependent Effect; inhibition [6]: Dose-Dependent Effect
CC(=O)[C@H]1CC[C@H]2[C@@H]3CC[C@H]4C[C@@H](OC(=O)Cc5ccc(C(=O)c6ccccc6)cc5)CC[C@]4(C)[C@H]3CC[C@]12C		1730 nM	
C=C1CC[C@@H]2[C@](C)(CO)[C@H](O)CC[C@@]2(C)[C@@H]1C/C=C1/C(=O)OC[C@H]1O [ANDROGRAPHOLIDE]		550 nM	
COc1c2cc3c(cc2nc2occc12)OCO3 [MACULINE]	Not Active		
C[C@@H]1CC[C@@]2(OC1)O[C@H]1C[C@H]3[C@@H]4CC[C@H]5C[C@H](O)CC[C@]5(C)C4=CC[C@]3(C)[C@H]1[C@@H]2C	Not Active		
COc1ccc(C[C@H]2c3cc(OC)c(OC)cc3CCN2C)cc1OC	Not Active		
COc1ccc(C(=O)/C=C/c2ccccc2)c(O)c1	Not Active		
COc1ccc2c(c1)CCN=C2Cc1ccc(OCc2ccccc2)c(OC)c1C		68 nM	CC50 at 48 h [2]: 19900 nM; inhibition [3]: Dose-Dependent Effect; inhibition [4]: Dose-Dependent Effect; inhibition [5]: Dose-Dependent Effect; inhibition [6]: Dose-Dependent Effect
